This is an account of results in patent publication US12077503B2, “Substituted cyclic amides and their use as herbicides” (FMC CORPORATION, priority 2015, dated 2024).

SMILES strings stand for the structures. Like-named read-outs stand apart in the source and are kept apart here.

Common to all, as to assay type: in vivo
The test system of one assay is Kochia (Kochia scoparia). Nature of the assay: Test A postemergence. To be noted: Bassia scoparia, post-emergence, 240 h, postemergence; for pest or weed control at 125 g/ha: 125 g ai/ha. Put shortly: (§1)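 Seeded soil received test chemicals as a preemergence directed spray, and seedlings at one to two leaves, 2–10 cm tall, received them postemergence, in a non-phytotoxic, surfactant-containing solvent mixture. Pots were held in a greenhouse for approximately 10 d, then rated for injury from 0, no effect, to 100, complete control.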

The test system of assay [1] is ragweed (common ragweed, Ambrosia elatior). Kind of assay: Test A postemergence. The conditions noted are these: Ambrosia artemisiifolia, post-emergence, 240 h, postemergence; for pest or weed control at 125 g/ha: 125 g ai/ha. Put shortly: as §1
The subject of another assay is corn (Zea mays). Kind of assay: Test A postemergence. The conditions noted are these: Zea mays, post-emergence, 240 h, postemergence. The procedure, abridged:
as §1

Assay [2] relates to barnyardgrass (Echinochloa crus-galli). Nature of the assay: Test A postemergence. The conditions noted are these: Echinochloa crus-galli, post-emergence, 240 h, postemergence; for pest or weed control at 125 g/ha: 125 g ai/ha. The procedure, abridged:
as §1

Assay [3] relates to blackgrass (Alopecurus myosuroides). Kind of assay: Test A postemergence. The conditions noted are these: Alopecurus myosuroides, post-emergence, 240 h, postemergence; for pest or weed control at 125 g/ha: 125 g ai/ha. The procedure, abridged:
as §1

For assay [4], the system named is wheat (Triticum aestivum). Kind of assay: Test A postemergence. To be noted: Triticum aestivum, post-emergence, 240 h, postemergence; for plant injury at 125 g/ha: 125 g ai/ha. Put shortly: as §1
The subject of assay [5] is pigweed (Amaranthus retroflexus). Kind of assay: Test A postemergence. The conditions noted are these: Amaranthus retroflexus, post-emergence, 240 h, postemergence; for pest or weed control at 125 g/ha: 125 g ai/ha. The procedure, abridged:
as §1

The subject of assay [6] is giant foxtail (Setaria faberii). Kind of assay: Test A postemergence. The conditions noted are these: Setaria faberi, post-emergence, 240 h, postemergence; for pest or weed control at 125 g/ha: 125 g ai/ha. The procedure, abridged:
as §1

Assay [7] deals with Galium (catchweed bedstraw, Galium aparine). Kind of assay: Test A postemergence. The conditions noted are these: Galium, post-emergence, 240 h, postemergence; for pest or weed control at 125 g/ha: 125 g ai/ha. Put shortly: as §1
For assay [8], the system named is ryegrass, Italian (Italian ryegrass, Lolium multiflorum). Kind of assay: Test A postemergence. The conditions noted are these: Lolium multiflorum, post-emergence, 240 h, postemergence; for pest or weed control at 125 g/ha: 125 g ai/ha. Put shortly: as §1
Assay [9] concerns sedge, umbrella (small-flower umbrella sedge, Cyperus difformis). Nature of the assay: Test B flooded paddy test. The conditions noted are these: Cyperus difformis, 250 g ai/ha, Flood, read-out: Sedge, Umbrella plant response rating. Put shortly:
(§2)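 Plants at 2-leaf stage flooded to 3 cm above soil, with compounds applied directly to paddy water and that depth maintained. Plants kept in greenhouse 13–15 d. Visual rating versus controls on a 0 (no effect) to 100 (complete control) scale.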

For assay [10], the system named is barnyardgrass (Echinochloa crus-galli). Nature of the assay: Test B flooded paddy test. The conditions noted are these: Echinochloa crus-galli, 250 g ai/ha, Flood, read-out: Barnyardgrass plant response rating. Put shortly:
as §2

Another assay has as its system rice (Oryra sativa). Kind of assay: Test B flooded paddy test. To be noted: Oryza sativa, 250 g ai/ha, Flood, read-out: Rice plant response rating. Put shortly:
as §2

In assay [11] the test system is ducksalad (Heteranthera limosa). Nature of the assay: Test B flooded paddy test. To be noted: Heteranthera limosa, 250 g ai/ha, Flood, read-out: Ducksalad plant response rating. The procedure, abridged:
as §2

Setting [12] is: 0 to 100 scale where 0 is no effect and 100 is complete control.
[13] abbreviates: scale of 0 to 100 where 0 is no effect and 100 is complete control.

Turning to `CN1C[C@H](c2csc3ccccc23)[C@@H](C(=O)Nc2ccccc2F)C1=O` [Compound 1114], the pest or weed control at 125 g/ha in the assay on Kochia (Kochia scoparia) (visual injury on 0 to 100 scale (0 no effect, 100 complete control), approx. 10 d, read-out: Kochia plant response rating) was determined as 0%; in assay [1] (visual injury on 0 to 100 scale (0 no effect, 100 complete control), approx. 10 d, read-out: Ragweed plant response rating), 0%; in [2] (visual injury on 0 to 100 scale (0 no effect, 100 complete control), approx. 10 d, read-out: Barnyardgrass plant response rating) it was 80%; in assay [3] (visual injury on 0 to 100 scale (0 no effect, 100 complete control), approx. 10 d, read-out: Blackgrass plant response rating) it was 20%; in assay [5] (visual injury on 0 to 100 scale (0 no effect, 100 complete control), approx. 10 d, read-out: Pigweed plant response rating) it was 0%; in [6] (visual injury on 0 to 100 scale (0 no effect, 100 complete control), approx. 10 d, read-out: Foxtail, Giant plant response rating), 90%. The pest or weed control at 125 g/ha in assay [7] (visual injury on 0 to 100 scale (0 no effect, 100 complete control), approx. 10 d, read-out: Galium plant response rating) amounted to 0%; in assay [8] (visual injury on 0 to 100 scale (0 no effect, 100 complete control), approx. 10 d, read-out: Ryegrass, Italian plant response rating), 0%. The pest or weed control at 500 g/ha amounted to 20% with Kochia (Kochia scoparia) (500 g ai/ha, 0 to 100 scale, 0 is no effect, 100 is complete control, read-out: Kochia plant response rating); 0% in assay [1] (500 g ai/ha, 0 to 100 scale, 0 is no effect, 100 is complete control, read-out: Ragweed plant response rating); 90% in assay [2] (500 g ai/ha, 0 to 100 scale, 0 is no effect, 100 is complete control, read-out: Barnyardgrass plant response rating); 60% in assay [3] (500 g ai/ha, 0 to 100 scale, 0 is no effect, 100 is complete control, read-out: Blackgrass plant response rating); 0% in assay [5] (500 g ai/ha, 0 to 100 scale, 0 is no effect, 100 is complete control, read-out: Pigweed plant response rating); 90% in [6] (500 g ai/ha, 0 to 100 scale, 0 is no effect, 100 is complete control, read-out: Foxtail, Giant plant response rating). The pest or weed control at 500 g/ha is 20% in [7] (500 g ai/ha, 0 to 100 scale, 0 is no effect, 100 is complete control, read-out: Galium plant response rating) and 40% in [8] (500 g ai/ha, 0 to 100 scale, 0 is no effect, 100 is complete control, read-out: Ryegrass, Italian plant response rating). The plant injury at 125 g/ha in the assay with corn (Zea mays) (125 g ai/ha, visual injury on 0 to 100 scale (0 no effect, 100 complete control), approx. 10 d, read-out: Corn plant response rating) worked out at 0%; in assay [4] (visual injury on 0 to 100 scale (0 no effect, 100 complete control), approx. 10 d, read-out: Wheat plant response rating), 0%. The plant injury at 500 g/ha with corn (Zea mays) (500 g ai/ha, 0 to 100 scale, 0 is no effect, 100 is complete control, read-out: Corn plant response rating) was determined as 70%; in assay [4] (500 g ai/ha, 0 to 100 scale, 0 is no effect, 100 is complete control, read-out: Wheat plant response rating), 30%. The pest or weed control at 250 g/ha stood at 0% in assay [9] (setting [12]), 45% in [10] (setting [12]), 0% with rice (Oryra sativa) (setting [12]) and 85% in assay [11] (setting [12]).

Turning to `Cc1ccc([C@H]2CN(C)C(=O)[C@@H]2C(=O)Nc2cccc(F)c2F)c(F)c1` [Compound 730], the pest or weed control at 125 g/ha came out at 70% in the assay on Kochia (Kochia scoparia) (visual injury after approximately 10 d, 0 to 100 scale (0 no effect, 100 complete control), read-out: Plant response rating, Kochia); 20% in [1] (visual injury after approximately 10 d, 0 to 100 scale (0 no effect, 100 complete control), read-out: Plant response rating, Ragweed); 100% in assay [2] (visual injury after approximately 10 d, 0 to 100 scale (0 no effect, 100 complete control), read-out: Plant response rating, Barnyardgrass); 50% in [3] (visual injury after approximately 10 d, 0 to 100 scale (0 no effect, 100 complete control), read-out: Plant response rating, Blackgrass); 20% in [5] (visual injury after approximately 10 d, 0 to 100 scale (0 no effect, 100 complete control), read-out: Plant response rating, Pigweed); 90% in assay [6] (visual injury after approximately 10 d, 0 to 100 scale (0 no effect, 100 complete control), read-out: Plant response rating, Foxtail, Giant). For the same compound, the pest or weed control at 125 g/ha in assay [7] (visual injury after approximately 10 d, 0 to 100 scale (0 no effect, 100 complete control), read-out: Plant response rating, Galium) turned out to be 50%; in assay [8] (visual injury after approximately 10 d, 0 to 100 scale (0 no effect, 100 complete control), read-out: Plant response rating, Ryegrass, Italian) it was 40%. Also, in the assay with corn (Zea mays) (125 g ai/ha, visual injury after approximately 10 d, 0 to 100 scale (0 no effect, 100 complete control)), the Corn plant response rating (crop injury, 0 = no effect, 100 = complete kill) at 125 g/ha worked out at 20%. Moreover, the plant injury at 125 g/ha in [4] (visual injury after approximately 10 d, 0 to 100 scale (0 no effect, 100 complete control), read-out: Plant response rating, Wheat) came to 30%. In addition, the pest or weed control at 250 g/ha was found to be 0% in [9] (setting [13]), 75% in assay [10] (setting [13]), 0% with rice (Oryra sativa) (setting [13]) and 95% in assay [11] (setting [13]).
